Reference: patent publication EP1344776A1, “5- 2-hydroxy-3-[1-(3-trifluoromethylphenyl)-cyclopropyl]-propionylamino -phtalide and 6- 2-hydroxy-3-[1-(3-trifluoromethylphenyl)-cyclopropyl]-propionylamino -4-methyl-2,3-benzoxazin-1-one derivatives with progesterone receptor modulating activity for use in fertility control, hormone replacement …” (Schering Aktiengesellschaft, priority 2002, dated 2003)

How the values were obtained:
hPR-A = experiment: PR-A transcription assay (MTV-LUC reporter, SK-N-MC cells); assay type: cell-based, human; conditions: 10^-7 mol/l test compound relative to R5020 10^-7 mol/l, 24 hours, 0.1 µM
Procedure: (§1) The method for screening for PR isoform-specific progestins according to the present invention is carried out with first and second SK-N-MC cells stably transfected with a plasmid expressing the hPR-A (first cells) or the hPR-B (second cells) and the LUC reporter gene linked to the hormonally responsive MTV promoter.
(§2) For the transcription assay, the cells are seeded onto 96-well dishes (2x 10^4 cells/dish) and cultured in a medium as described above, with the exception that the FCS is replaced by a 3 % charcoal stripped FCS. 48 hours later, cells are contacted with prediluted test compounds. For determination of agonistic activity, cells are cultured in the presence of increasing concentrations (10^-6 to 10^-11 mol/l) of test progestins. As a positive control for reporter gene induction cells are treated with 10^-6 to 10^-11 mol/l R5020 (promegestone). As a negative control for reporter gene induction, cells are cultured in 1 % ethanol.
(§3) Evaluation of the response gives the efficacy [%], and evaluation of the EC50 values gives the potency [nM]. Calculation of the agonistic activity is conducted as follows:
(§4) The LUC activity [%] for the measured data points is calculated as follows: relative LUC activity [%] = 100 x((response 10)^-6 (to 10)^-11 mol/l test compound - CO)/(CI - CO) [formula] wherein CI = 100 % stimulation (R5020, 10^-7 mol/l) and CO = 0 % stimulation (ethanol, 1 %).
(§5) Thus, the efficacy [%] is calculated according to: efficacy [%] = 100 x((response 10)^-7 mol/l test compound - CO)/(CI - CO) [formula]
(§6) The potency [nM], i.e. the EC50, is determined graphically.

hPR-B = experiment: PR-B transcription assay (MTV-LUC reporter, SK-N-MC cells); assay type: cell-based, human; conditions: 10^-7 mol/l test compound relative to R5020 10^-7 mol/l, 24 hours, 0.1 µM
Procedure: as §1
The cells are cultured in Minimum Essential Medium with Earl's Salts (S-MEM, without L-glutamine; Gibco BRL, no. 21090-022), supplemented with 10 % fetal calf serum (FCS), penicillin 100U/streptomycin 100 µg/ml (Biochrom, no. A2213), L-glutamine 4 mmol/l (Gibco BRL, no. 25030-024), sodium pyruvate 1 mmol/l (Biochrom, no. L0473) and 1x non-essential amino acids (Biochrom, no. K0293) at a temperature of 37 °C and in an atmosphere of 5 % carbon dioxide.
as §2
After incubation with test progestins for 24 hours, the medium is removed and cells are lysed with 20 µl of lysis buffer (Luciferase Assay System E 153A; Promega) and under agitation of the plate for 10 min. After addition of 30 µl of luciferase reagent (Luciferase Assay System E 151A + 152A; Promega) within 30 seconds per plate, the activity of the luciferase reporter gene product is determined in the cell lysates by means of a Microlite ML 3000 microtiter plate luminometer (Dynatech) in cycle mode.
as §3, §4, §5, §6

rat mammary epithelium = experiment: Bioassay on proliferating/differentiating effects in the rat mammary epithelium (whole mount staining); assay type: in vivo; conditions: terminal end buds
Procedure: The object of this test is to evaluate the effect of progestins on the development of the mammary gland, in particular on the formation of terminal end buds in the mammary gland in estrogen primed rats.
Premature female rats (Wistar Han, SPF) are ovariectomized at the age of 21 days, 4 to 6 days before treatment start. The animals are treated for 6 days with standard estrogen (estrone, 70 µg/kg) and the test progestin (application volume: 0.1 ml/50g body weight; vehicle: benzylbenzoate/castor oil (1+4 v/v); subcutaneous). Control groups are e.g.: vehicle, estrone without progestin, estradiol together with a known progestin, e.g. R5020 (promegestone). After the 6-day treatment the animals are killed with carbon dioxide.
For the whole mount staining, animals are shaved in the left abdominal inguinal mammary region, which is cut from the body together with the skin. For the histological/immunohistochemical analyses the right abdominal inguinal mammary gland is cut from the body together with the connective tissue adhered thereto and fixed in 3.7 % formalin in PBS (phosphate buffer saline; without Ca^2+/Mg^2+).
The preparations are fixed over night in alcohol-formalin according to the method of Tellyesniczky (see below). Then the mammary gland tissue and subcutis adhered thereto are stripped from the cutis and the preparations are again fixed over night. The further steps are as follows: ethanol 70 %: 1.5 hours; acetone: 3 × 1.5 hours; acetone: over night; isopropanol: 1.5 hours; ethanol 96 %: 2 hours; hematoxylin-iron: 3 hours; VE water: first rinse the preparations and then 2 × 0.5 hours; ethanol 70 %: over night; ethanol 80 %: 1.5 hours; ethanol 96 %: 1.5 hours; isopropanol: 1.5 hours. The preparations are then moved to petri dishes and left in toluene for approximately 1 hour, i.e. until they have stopped to swim up. Then the preparations are treated with cedarwood oil (Merck, no. 1.06965). The incubation times above are minimum times and can be extended. In particular, incubation in ethanol 70 % after fixation can be extended to at least 2.5 weeks.
Preparation of the solutions necessary for the whole mount staining: • a) Alcohol-formalin according to Tellyesniczky: formaldehyde 37%: 81.8 ml, ethanol 70 %: 1636 ml, glacial acetic acid (to be added shortly before use): 81.8 ml (total: 1800 ml). • b) Hematoxylin mother solution: Hematoxylin (Merck, no. 1.15938): 10 g, ethanol 96 %: 100 ml. The solution must stand for 48 hours at 37 °C before use. It can be kept in a dark place for almost unlimited time. • c) Hematoxylin-iron solution for use: hematoxylin mother solution (filtered): 15.2 ml, ethanol 96 %: 1374 ml, FeCl3 x 6 H2O (s. 4): 91.1 ml, 1 mol/l HCl: 220 ml (total: 1700 ml); adjustment to a pH of 1.25 with 2mol/l NaOH. • d) FeCl3 x 6 H2O solution: FeCl3 x 6 H2O (Merck, no. 1.03943): 1.07 g, VE water: 90.2 ml, HCl: 37 %: 0.92 ml (total: 91.1 ml).
By means of a 40-fold magnification, the terminal end buds near the nipple in direction of the tail are counted. The area to be investigated should be about 1.8 mm^2. For well-differentiated preparations this area may be reduced, with at least 250 buds to be counted. After counting, the number of end buds per 1 mm^2 is calculated. […]

female rats = experiment: Ovulation inhibition test in rat; assay type: in vivo; conditions: rat (Table 1-b); read-out: Ovulation Inhibition (rat) [ED50]
Procedure: Before the treatment is started, two […] cycles of female rats (weight: 190 to 210 g) were monitored. Only animals having a regular 4 day-cycle are used for the subsequent test. Starting in the metoestrus, the test compound is administered for 4 days (day 1 to 4) and the cycle is controlled thereafter.
For subcutaneous application, the test compounds are dissolved in benzyl benzoate/castor oil (1+9 v/v) and the daily dose is administered in a volume of 1 ml/kg body weight.
For peroral application, the test compounds are suspended in a carrier liquid (85 mg Myrj^R in 100 ml 0.9 % w/v NaCl solution) and the daily dose is administered in a volume of 2 ml/kg body weight.
On day 4, after the application of the test compound, those animals having estrus or metoestrus are ovariectomized under ether anesthesia on one side. Preparations of the tubes are prepared and they are investigated for ova by means of microscope. On day 5 all animals (intact and partly ovariectomized) are killed with carbon dioxide, the tubes are preserved and analyzed in the same way. It is then determined, as a percentage, in how many animals ovulation was inhibited.

[1] = test system: Pregnant rats (Wistar Han, SPF); experiment: Pregnancy maintenance test in rat; assay type: in vivo; conditions: ovariectomized pregnant rats, with estrone
Text: In rats, castration induces termination of pregnancy. Progestins (combined with estrogens) are capable of maintaining pregnancy in castrated animals. However, the degree of pregnancy maintenance in castrated rats is optimal only in a defined dose range. Therefore, higher as well as lower doses generally induce a weaker effect. Accompanying treatment with defined doses of estrone (E1) increases the pregnancy maintaining effect of progestins.
Pregnant rats (Wistar Han, SPF) of 190 to 220 g (5 to 8 animals per dose) are ovariectomized on day 8 of pregnancy, 2 hours after the first substance administration. From day 8 to day 14, rats are daily treated with test progestin in combination with a standard dose of E1. One day later, animals are killed with carbon dioxide. For each animal, the number of living and dead fetuses is determined according to the heartbeat of the embryos. In case of empty uteri, the number of implantation sites is determined by means of staining with a 10 % ammonium sulfide solution.
S.c. (subcutaneous) application: The test progestin is dissolved in benzyl benzoate/castor oil (1+4 v/v), and the daily dose is administered in a volume of 1 ml/kg body weight.
P.o. (peroral) application: The test progestin is suspended in a carrier liquid (85 mg Myrj^R in 100 ml 0.9 % w/v NaCl solution), and the daily dose is administered in a volume of 2 ml/kg body weight.
I.p. (intraperitoneal) application: The test progestin is dissolved in propylene glycol and charged in miniature osmotic pumps (type 2001, 1.0 µl/h, 7 days), which are placed in the abdominal cavity of the rat.
The standard dose of estrone is 0.005 mg/kg body weight s.c. and is dissolved in benzyl benzoate/castor oil ([…]).
It is determined the pregnancy maintenance per animal [%], the pregnancy maintenance per dose (median of single values) and the ED50 (dose, at which pregnancy is maintained in 50 % of the animals; 100 % corresponds to control animals that are not ovariectomized).

Structure (SMILES)	PR-A agonism efficacy (hPR-A) [%]	PR-B agonism efficacy (hPR-B) [%]	Mammary gland, whole mount staining (rat) [equi-efficient dose] (rat mammary epithelium; dose pair with 0.1 mg/kg R5020, independent test) [mg/kg]	Mammary gland, whole mount staining (rat) [equi-efficient dose] (rat mammary epithelium; dose pair with 0.3 mg/kg R5020, independent tests) [mg/kg]	ED50 (female rats) [mg/kg]	Maintenance of pregnancy (rat) [ED50] [1] [mg/kg]
Cc1noc(=O)c2ccc(NC(=O)C(O)(CC3(c4cccc(C(F)(F)F)c4F)CC3)C(F)(F)F)cc12 (single isomer, unassigned; (+)) [((+)-2), (+)-6-{2-hydroxy-3-[1-(2-fluoro-3-trifluoromethylphenyl)-cyclopropyl]-2-trifluoromethyl-propionylamino}-4-methyl-2,3-benzoxazin-1-one]	99.2	67.5				
O=C1OCc2cc(NC(=O)C(O)(CC3(c4cccc(C(F)(F)F)c4F)CC3)C(F)(F)F)ccc21 (single isomer, unassigned; (+)) [((+)-4), (+)-5-{2-hydroxy-3-[1-(2-fluoro-3-trifluoromethylphenyl)-cyclopropyl]-2-trifluoromethyl-propionylamino}-phthalide]	100	82				
Cc1noc(=O)c2ccc(NC(=O)C(C)(O)CC3(c4cccc(C(F)(F)F)c4)CC3)cc12 (single isomer, unassigned; (+)) [((+)-3), (+)-6-{2-hydroxy-3-[1-(3-trifluoromethylphenyl)-cyclopropyl]-2-methyl-propionylamino}-4-methyl-2,3-benzoxazin-1-one]	94	71				
CCC(=O)[C@@]1(C)CC[C@H]2[C@@H]3CCC4=CC(=O)CCC4=C3CC[C@@]21C [R5020, promegestone, reference compound]			0.1	0.3	0.06	0.1
